Data taken from patent US20240400549A1, “COMPOUNDS AND THEIR USES FOR TREATING NEURODEGENERATIVE DISEASE” (Academia Sinica, priority 2021, published 2024).

What was measured:
[1] = tested on: C-TDP-43 expressed Neuro-2a cells; experiment: AlamarBlue cell viability in C-TDP-43 expressed Neuro-2a cells; type: cell-based, mouse; conditions: 5 μM; eGFP-C-TDP-43 overexpressing Neuro-2a cells; mock 0.43±0.04 vs blank control 1±0.03
Protocol: Neuro-2a cells were seeded in a 24-well plate at a concentration of 8×10^4 cells/well and incubated overnight. The attached Neuro-2a cells were then transfected with the eGFP-C-TDP-43 plasmid (1.1 μg) using TurboFect™ transfection reagent (Invitrogen) according to manufacturer's recommendations, and treated with or without 5 μM test compound after 2 h transfection. The cell viability indicator, AlamarBlue (Invitrogen), was added after 42 h of incubation, and the mixture was incubated for another 6 h. […] conditional medium was transferred to a 96-well plate, and cell viability was determined by the increased fluorescence intensity (λex=560 nm, λem=590 nm).
In this example, whether the compounds of formula (I) or (II) could relieve C-TDP-43-mediated cytotoxicity was examined.

[2] = tested on: Neuro-2a cells; experiment: Cytotoxicity of compounds in Neuro-2a cells; type: cell-based, mouse; conditions: 5 μM concentration

For CN(C)c1ccc(-c2nc3ccc(OCCOCCOCCNc4cccc5c4C(=O)N(C4CCC(=O)NC4=O)C5=O)cc3s2)cc1 (centres unmarked) [I-1b, 4-((2-(2-(2-((2-(4-(dimethylamino)phenyl)benzo[d]thiazol-6-yl)oxy)ethoxy)ethoxy)ethyl)amino)-2-(2,6-dioxopiperidin-3-yl)isoindoline-1,3-dione], the cell viability [1] was 0.56±0.04 and the “cytotoxicity comparing to mock group of Neuro-2a cells” value [2] was “neglectable cytotoxicity”.
